Read-outs that look alike come from different tables or passages of the source.
Legend:
[1] = biological target: recombinant human Mcl-1 (residues 171-327) / Bim interaction (Homo sapiens (Human), UniProt Q07820); test: biochemical; assay type: binding; settings: read-out: Mcl-1 HTRF IC50
Method: The inhibition of the Mcl-1/Bim interaction was measured using a time-resolved fluorescence resonance energy transfer (TR-FRET) assay. […] The TR-FRET assay was conducted in a 384-well white OptiPlate™ (PerkinElmer, Waltham, Mass.) in a total volume of 40 μL. The reaction mixture contained 0.1 nM Mcl-1(171-327), 0.05 nM biotin-Bim (51-76), 0.05 nM LANCE® Eu-W1024 Anti-6×His (PerkinElmer), 0.072 nM Streptavidin-Xlent (Cisbio, Bedford, Mass.), and serially diluted test compounds in the binding buffer of 20 mM Hepes, pH 7.5, 150 mM NaCl, 0.016 mM Brij®35, and 1 mM dithiothreitol. Test compounds were pre-incubated with Mcl-1(171-327) and biotin-Bim (51-76) for 60 min before addition of the detection mixture (LANCE® Eu-W1024 Anti-6×His and Streptavidin-Xlent). The reaction plates were further incubated overnight and then were read on an Envision® multimode reader (PerkinElmer). Fluorescence signals were measured at 620 nm (40-nm bandwidth) and 665 nm (7.5-nm bandwidth) with a 60 is delay after excitation at 320 nm (75-nm bandwidth). The signal ratio at 665/620 nm corresponded to the Mcl-1/Bim interaction and was used in all data analyses. The IC50 values of test compounds were determined from duplicate data by analyzing competition curves using a four-parameter sigmoidal model in GraphPad Prism (GraphPad Software, San Diego, Calif.) or in Genedata Screener® (Genedata, Basel, Switzerland).

[2] = tested on: human multiple myeloma cell line, OPM-2; test: Cell viability assay (OPM-2 10 FBS), CellTiter-Glo; assay type: cell-based
How it was run: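 Steps: plate cells at 3000/well in 10% FBS growth medium, add serially diluted compound, incubate 16 h at 37 °C with 5% CO2, add detection reagent and read luminescence after 25 min. A 4-parameter logistic model gives IC50.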

[3] = TR-FRET, Mcl-1(171-327) / biotin-Bim (51-76)
[4] = Homo sapiens, OPM-2, 16 h, read-out: OPM-2 10% FBS IC50 IP, OPM-2 cells, 10% FBS, 16 h, CellTiter-Glo
[5] = read-out: OPM-2 10% FBS IC50 IP, OPM-2 cells, 10% FBS, 16 h, CellTiter-Glo

Sequence of recombinant human Mcl-1 (residues 171-327) / Bim interaction (Q07820 171-327): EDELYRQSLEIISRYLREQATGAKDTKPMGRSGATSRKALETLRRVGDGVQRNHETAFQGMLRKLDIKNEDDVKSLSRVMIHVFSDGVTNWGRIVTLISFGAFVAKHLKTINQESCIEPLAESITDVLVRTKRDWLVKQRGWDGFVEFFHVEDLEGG

Row | SMILES | IC50 [1, 3] | IC50 [2, 4] | IC50 [2, 5] | IC50 [1]
1 | C[C@@H]1[C@@H](C)CCCC2(OCCO2)[C@@H]2CC[C@H]2CN2C[C@@]3(CCCc4cc(Cl)ccc43)COc3ccc(cc32)C(=O)NS1(=O)=O [Example 100102, (3′R,6′R,11′S,12′R,22′S)-6″-chloro-11′,12′-dimethyl-3″,4″-dihydro-2″H,15′H-dispiro[1,3-dioxolane-2,7′-[20]oxa[13]thia[1,14]diazatetracyclo [14.7.2.0~3,6~.0~19,24~]pentacosa[16,18,24]triene-22′,1″-naphthalen]-15′-one 13′,13′-dioxide] | 0.99 nM | 1430 nM | – | –
2 | C[C@@H]1[C@@H](C)CCC[C@@](O)(Cc2ccccn2)[C@@H]2CC[C@H]2CN2C[C@@]3(CCCc4cc(Cl)ccc43)COc3ccc(cc32)C(=O)NS1(=O)=O [Example 100104, (1S,3′R,6′R,7′R,11′S,12′R)-6-chloro-7′-hydroxy-11′,12′-dimethyl-7′-(2-pyridinylmethyl)-3,4-dihydro-2H,15′H-spiro[naphthalene-1,22′-[20]oxa[13]thia[1,14]diazatetracyclo [14.7.2.0~3,6~.0~19,24~]pentacosa[16,18,24]trien]-15′-one 13′,13′-dioxide] | 0.599 nM | – | 250 nM | –
3 | C[C@@H]1[C@@H](C)CCC[C@@](O)(Cc2ccccn2)[C@@H]2CC[C@H]2CN2C[C@@]3(CCCc4cc(Cl)ccc43)COc3ccc(cc32)C(=O)NS1(=O)=O [Example 100105, (1S,3′R,6′R,7′R,11′S,12′R)-6-chloro-7′-hydroxy-11′,12′-dimethyl-7′-(2-pyridinylmethyl)-3,4-dihydro-2H,15′H-spiro[naphthalene-1,22′-[20]oxa[13]thia[1,14]diazatetracyclo [14.7.2.0~3,6~.0~19,24~]pentacosa[16,18,24]trien]-15′-one 13′,13′-dioxide] | 5.93 nM | – | 3660 nM | –
4 | C[C@@H]1[C@@H](C)C/C=C/[C@@](O)([C@@H]2CCN(C)C2=O)[C@@H]2CC[C@H]2CN2C[C@@]3(CCCc4cc(Cl)ccc43)COc3ccc(cc32)C(=O)NS1(=O)=O [Example 100106, (1S,3′R,6′R,7′S,8′E,11′S,12′R)-6-chloro-7′-hydroxy-11′,12′-dimethyl-7′-((3S)-1-methyl-2-oxo-3-pyrrolidinyl)-3,4-dihydro-2H,15′H-spiro[naphthalene-1,22′-[20]oxa[13]thia[1,14]diazatetracyclo [14.7.2.0~3,6~.0~19,24~]pentacosa[8,16,18,24]tetraen]-15′-one 13′,13′-dioxide] | 0.143 nM | – | 121 nM | –
5 | C[C@@H]1[C@@H](C)CCC[C@@](O)(CC(=O)N2CCCC2)[C@@H]2CC[C@H]2CN2C[C@@]3(CCCc4cc(Cl)ccc43)COc3ccc(cc32)C(=O)NS1(=O)=O [Example 100107, (1S,3′R,6′R,7′R,11′S,12′R)-6-chloro-7′-hydroxy-11′,12′-dimethyl-7′-(2-oxo-2-(1-pyrrolidinyl)ethyl)-3,4-dihydro-2H,15′H-spiro[naphthalene-1,22′-[20]oxa[13]thia[1,14]diazatetracyclo [14.7.2.0~3,6~.0~19,24~]pentacosa[16,18,24]trien]-15′-one 13′,13′-dioxide] | 0.296 nM | 181 nM | – | –
6 | C[C@@H]1[C@@H](C)CCC[C@@](O)(CC(=O)N2CCCC2)[C@@H]2CC[C@H]2CN2C[C@@]3(CCCc4cc(Cl)ccc43)COc3ccc(cc32)C(=O)NS1(=O)=O [Example 100108, (1S,3′R,6′R,7′R,11′S,12′R)-6-chloro-7′-hydroxy-11′,12′-dimethyl-7′-(2-oxo-2-(1-pyrrolidinyl)ethyl)-3,4-dihydro-2H,15′H-spiro[naphthalene-1,22′-[20]oxa[13]thia[1,14]diazatetracyclo [14.7.2.0~3,6~.0~19,24~]pentacosa[16,18,24]trien]-15′-one 13′,13′-dioxide] | 0.436 nM | – | 358 nM | –
7 | C[C@@H]1[C@@H](C)C/C=C/[C@@](O)([C@@H]2CCN(C)C2=O)[C@@H]2CC[C@H]2CN2C[C@@]3(CCCc4cc(Cl)ccc43)COc3ccc(cc32)C(=O)NS1(=O)=O [Example 100109, (1S,3′R,6′R,7′S,8′E,11′S,12′R)-6-chloro-7′-hydroxy-11′,12′-dimethyl-7′-((3S)-1-methyl-2-oxo-3-pyrrolidinyl)-3,4-dihydro-2H,15′H-spiro[naphthalene-1,22′-[20]oxa[13]thia[1,14]diazatetracyclo [14.7.2.0~3,6~.0~19,24~]pentacosa[8,16,18,24]tetraen]-15′-one 13′,13′-dioxide] | 0.486 nM | – | 2140 nM | –
8 | CCN(CC)C(=O)C[C@]1(O)CCC[C@H](C)[C@@H](C)S(=O)(=O)NC(=O)c2ccc3c(c2)N(C[C@@H]2CC[C@H]21)C[C@@]1(CCCc2cc(Cl)ccc21)CO3 [Example 100111, 2-((1S,3′R,6′R,7′R,11′S,12′R)-6-chloro-7′-hydroxy-11′,12′-dimethyl-13′,13′-dioxido-15′-oxo-3,4-dihydro-2H-spiro[naphthalene-1,22′-[20]oxa[13]thia[1,14]diazatetracyclo [14.7.2.0~3,6~.0~19,24~]pentacosa[16,18,24]trien]-7′-yl)-N,N-diethylacetamide] | – | – | 687 nM | 0.352 nM
9 | CCN(CC)C(=O)C[C@]1(O)CCC[C@H](C)[C@@H](C)S(=O)(=O)NC(=O)c2ccc3c(c2)N(C[C@@H]2CC[C@H]21)C[C@@]1(CCCc2cc(Cl)ccc21)CO3 [Example 100112, 2-((1S,3′R,6′R,7′R,11′S,12′R)-6-chloro-7′-hydroxy-11′,12′-dimethyl-13′,13′-dioxido-15′-oxo-3,4-dihydro-2H-spiro[naphthalene-1,22′-[20]oxa[13]thia[1,14]diazatetracyclo [14.7.2.0~3,6~.0~19,24~]pentacosa[16,18,24]trien]-7′-yl)-N,N-diethylacetamide] | – | – | 1800 nM | 1.29 nM
10 | C[C@@H]1[C@@H](C)CCC[C@@](O)(Cc2ccncn2)[C@@H]2CC[C@H]2CN2C[C@@]3(CCCc4cc(Cl)ccc43)COc3ccc(cc32)C(=O)NS1(=O)=O [Example 100113, (1S,3′R,6′R,7′R,11′S,12′R)-6-chloro-7′-hydroxy-11′,12′-dimethyl-7′-(4-pyrimidinylmethyl)-3,4-dihydro-2H,15′H-spiro[naphthalene-1,22′-[20]oxa[13]thia[1,14]diazatetracyclo [14.7.2.0~3,6~.0~19,24~]pentacosa[16,18,24]trien]-15′-one 13′,13′-dioxide] | 0.182 nM | – | 70 nM | –
11 | C[C@@H]1[C@@H](C)CCC[C@@](O)(Cc2ccncn2)[C@@H]2CC[C@H]2CN2C[C@@]3(CCCc4cc(Cl)ccc43)COc3ccc(cc32)C(=O)NS1(=O)=O [Example 100114, (1S,3′R,6′R,7′R,11′S,12′R)-6-chloro-7′-hydroxy-11′,12′-dimethyl-7′-(4-pyrimidinylmethyl)-3,4-dihydro-2H,15′H-spiro[naphthalene-1,22′-[20]oxa[13]thia[1,14]diazatetracyclo [14.7.2.0~3,6~.0~19,24~]pentacosa[16,18,24]trien]-15′-one 13′,13′-dioxide] | 1.05 nM | – | 491 nM | –
12 | C[C@@H]1[C@@H](C)CCC[C@@]2(OCCS2)[C@@H]2CC[C@H]2CN2C[C@@]3(CCCc4cc(Cl)ccc43)COc3ccc(cc32)C(=O)NS1(=O)=O [Example 100115, (1S,3′R,6′R,7′S,11′S,12′R)-6-chloro-11′,12′-dimethyl-3,4-dihydro-2H,15′H-dispiro[naphthalene-1,22′-[20]oxa[13]thia[1,14]diazatetracyclo [14.7.2.0~3,6~.0~19,24~]pentacosa[16,18,24]triene-7′,2″-[1,3]oxathiolan]-15′-one 13′,13′-dioxide] | 4.49 nM | 2840 nM | – | –
13 | C[C@H](C(=O)N(C)C)[C@]1(O)/C=C/C[C@H](C)[C@@H](C)S(=O)(=O)NC(=O)c2ccc3c(c2)N(C[C@@H]2CC[C@H]21)C[C@@]1(CCCc2cc(Cl)ccc21)CO3 [Example 100125, (2S)-2-((1S,3′R,6′R,7′S,8′E,11′S,12′R)-6-chloro-7′-hydroxy-11′,12′-dimethyl-13′,13′-dioxido-15′-oxo-3,4-dihydro-2H-spiro[naphthalene-1,22′-[20]oxa[13]thia[1,14]diazatetracyclo [14.7.2.0~3,6~.0~19,24~]pentacosa[8,16,18,24]tetraen]-7′-yl)-N,N-dimethylpropanamide] | 0.43 nM | 555 nM | – | –
14 | C=CC[C@@]1(O)/C=C/C[C@H](C)[C@@H](C)S(=O)(=O)NC(=O)c2ccc3c(c2)N(C[C@@H]2CC[C@H]21)C[C@@]1(CCCc2cc(Cl)ccc21)CO3 [Example 100130, (1S,3′R,6′R,7′R,8′E,11′S,12′R)-6-chloro-7′-hydroxy-11′,12′-dimethyl-7′-(2-propen-1-yl)-3,4-dihydro-2H,15′H-spiro[naphthalene-1,22′-[20]oxa[13]thia[1,14]diazatetracyclo [14.7.2.0~3,6~.0~19,24~]pentacosa[8,16,18,24]tetraen]-15′-one 13′,13′-dioxide] | 2.69 nM | – | 2170 nM | –
15 | COC1=NO[C@@]2(CCC[C@H](C)[C@@H](C)S(=O)(=O)NC(=O)c3ccc4c(c3)N(C[C@@H]3CC[C@H]32)C[C@@]2(CCCc3cc(Cl)ccc32)CO4)C1 [Example 100134, (1S,3′R,6′R,7′S,11′S,12′R)-6-chloro-3″- methoxy-11′,12′-dimethyl-3,4-dihydro-2H,4″H,15′H-dispiro[naphthalene-1,22′-[20]oxa[13]thia[1,14]diazatetracyclo [14.7.2.0~3,6~.0~19,24~]pentacosa[16,18,24]triene-7′,5″-[1,2]oxazol]-15′-one 13′,13′-dioxide] | 0.845 nM | 3510 nM | – | –

From US10821115B2, “Compounds that inhibit Mcl-1 protein” (priority 2017, dated 2020)
